Measurements from patent US20240317709A1, “Lysophosphatidic Acid Receptor Antagonists for Breast Cancer Treatment” (Lakehead University, priority 2023, published 2024).
Where two headings read alike, the source gives them in different places.

Tests used:
[1] = target: T1, LPA1 (Homo sapiens, UniProt Q92633); test: in vitro cAMP assay using a CHO cell line overexpressing LPA1 receptor; type: cell-based; set-up: GFP; host or cells: CHO-K1, transiently transfected; settings: for % inhibition: cAMP assay, 1 μM LPA, 100 nM forskolin, test concentration not given
Target sequence in this assay (Q92633 whole entry): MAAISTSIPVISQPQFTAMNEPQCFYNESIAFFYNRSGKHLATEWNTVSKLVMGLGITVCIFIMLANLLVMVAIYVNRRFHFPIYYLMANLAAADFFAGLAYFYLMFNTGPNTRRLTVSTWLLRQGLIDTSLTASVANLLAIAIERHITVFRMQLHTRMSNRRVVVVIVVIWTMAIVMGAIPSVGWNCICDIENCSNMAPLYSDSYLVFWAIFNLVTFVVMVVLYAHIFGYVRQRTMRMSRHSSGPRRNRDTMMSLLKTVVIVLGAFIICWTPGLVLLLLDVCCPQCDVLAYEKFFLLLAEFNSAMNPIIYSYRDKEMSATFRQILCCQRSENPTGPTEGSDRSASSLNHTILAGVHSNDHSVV

[2] = system: MDA-MB-231 cells; test: transwell cell migration assay; type: cell-based; settings: LPA with 1f 0, 0.5, 1.0 or 1.5 mM, 48 h, FIG. 3B
Description: (§1) In addition, transwell migration/invasion assays were performed to further confirm the effect of LPA and 1f on cell migration and invasion. Transwell assay is based on a chamber of two media-filled partitions separated by a microporous membrane. Cells were plated in the upper chamber and are allowed to migrate to the lower chamber through the membrane pores with the stimulation of LPA and 1f. For the invasion assay, a layer of basement membrane extract was precoated on the chamber to block the pores of the membrane and prevent non-invasive cells from migrating through the membranes. Invasive cells are able to secret proteases which degrade the membrane extract in order to invade through the membrane.
(§2) Transwell assays were conducted in 24-well transwell plates (pore size: 8 μm) to assess the migratory and invasive capacities of MDA-MB-231 cells. For migration assays, 2×10^4 cells were placed in 200 μl of serum-free DMEM in the upper chamber and then 500 μl of DMEM containing 10% FBS was added to the lower chamber. For the invasion assays, the chamber inserts were precoated with 50 μl of 1:9 mixture of basement membrane extract (R&D Systems) and DMEM overnight in a 37° C. incubator, then 6×10^4 cells were seeded in the upper chamber. 500 μl of DMEM containing 10% FBS was added to the lower chamber. Cells were treated with LPA or LPA with 1f (0, 0.5, 1.0 or 1.5 mM) for 48 h. […]

[3] = system: MDA-MB-231 cells; test: colony formation assay; type: cell-based; settings: LPA with 1f 0, 0.5, 1.0 or 1.5 mM, FIG. 2
Description: In order to study the effect of LPA and the compound 1f on the proliferation, migration, and invasion of MDA-MB-231, several in vitro assays were performed. Colony formation assay is a cell survival assay based on the ability of a single cell to grow into a colony and was performed to evaluate cell proliferation (17).
MDA-MB-231 cells were trypsinized and plated in 6-well plate at a density of 1,000 cells/well and then cultured in 10% FBS DMEM. Cells were allowed to attach overnight and then exposed to LPA or LPA with 1f (0, 0.5, 1.0 or 1.5 mM). Forty-eight hours after chemical treatment, the media was replaced with fresh media, and the plates were incubated at 37° C. Ten days later, the cells were fixed and stained with 4% paraformaldehyde in 0.1% crystal violet. The number of colonies, defined as >50 cells/colony were counted, and the number of colonies were calculated using ImageJ.

[4] = system: MDA-MB-231 cells; test: transwell cell invasion assay; type: cell-based; settings: basement membrane extract coated, LPA with 1f 0, 0.5, 1.0 or 1.5 mM, 48 h, FIG. 3B
Description: as §1, §2

[5] = system: MDA-MB-231 cells; test: wound healing assay; type: cell-based; settings: LPA with 1f 0, 0.5, 1.0 or 1.5 mM, 48 h, FIG. 3A
Description: Wound healing assay is a well-established method to determine cell migration in vitro. Firstly, a scratch was created in the cell monolayer, and then cells migrate to close the scratch. Cell migration rate can be measured using this method.
Cells were seeded in a six-well plate at a density of 3×10^5 cells/well. When the cells formed a tight cell monolayer, a 200-μl plastic pipette tip was used to make a scratch. Cells were washed with PBS to remove cell debris, cultured in serum-free DMEM medium and exposed to LPA or LPA with 1f (0, 0.5, 1.0 or 1.5 mM) for 48 h.
Wound photographs were recorded at the indicated times and analyzed by ImageJ software. All assays were conducted three times in our study.

[6] = target: T1, LPA1; settings: literature value (ref 15); read-out: IC50 in calcium release assay (LPA1); cited from earlier work
Target sequence in this assay (Q92633 whole entry, species assumed): as the sequence (Q92633 whole entry) above

[7] = system: histamine release induced by LPA; settings: in vivo; literature (ref 15); cited from earlier work
[8] = target: T2, LPAs (Homo sapiens, UniProt Q9UBY5); settings: literature value (ref 15); read-out: LPAs IC50 in calcium release assay; cited from earlier work
T2 sequence (Q9UBY5 1-353): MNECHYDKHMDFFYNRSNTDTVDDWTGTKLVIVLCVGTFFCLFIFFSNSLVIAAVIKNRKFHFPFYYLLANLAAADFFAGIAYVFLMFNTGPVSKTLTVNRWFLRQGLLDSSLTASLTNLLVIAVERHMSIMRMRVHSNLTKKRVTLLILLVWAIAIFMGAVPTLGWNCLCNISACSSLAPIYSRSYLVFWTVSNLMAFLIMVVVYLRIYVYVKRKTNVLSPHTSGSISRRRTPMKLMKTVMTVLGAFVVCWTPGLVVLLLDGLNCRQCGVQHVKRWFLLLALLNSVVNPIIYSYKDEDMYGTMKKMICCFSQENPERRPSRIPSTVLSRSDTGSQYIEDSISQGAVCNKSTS

[9] = system: lung fibroblast; settings: in vitro; literature (ref 15); cited from earlier work
[10] = concentration to reverse 50% of the inhibitory effect of 1 μM 18:1 LPA on forskolin-mediated cAMP production, CHO-K1 overexpressing LPA1

Row | SMILES | % inhibition [1] [%] | IC50 [1, 10] [nM] | further results
1 | Cc1nnn(-c2ccc(-c3ccc(C4(C(=O)O)CC4)cc3)cc2)c1NC(=O)OCc1ccc(F)cc1 [Compound 1b, 1-(4′-(5-((((4-fluorobenzyl)oxy)carbonyl)amino)-4-methyl-1H-1,2,3-triazol-1-yl)-[1,1′-biphenyl]-4-yl)cyclopropane-1-carboxylic acid] | 58.43 | 3340 | 
2 | Cc1nnn(-c2ccc(-c3ccc(C4(C(=O)O)CC4)cc3)cc2)c1NC(=O)OCc1cccc(F)c1 [Compound 1c, 1-(4′-(5-((((3-fluorobenzyl)oxy)carbonyl)amino)-4-methyl-1H-1,2,3-triazol-1-yl)-[1,1′-biphenyl]-4-yl)cyclopropane-1-carboxylic acid] | 77.1 | 2150 | 
3 | Cc1nnn(-c2ccc(-c3ccc(C4(C(=O)O)CC4)cc3)cc2)c1NC(=O)OCc1ccccc1F [Compound 1d, 1-(4′-(5-((((2-fluorobenzyl)oxy)carbonyl)amino)-4-methyl-1H-1,2,3-triazol-1-yl)-[1,1′-biphenyl]-4-yl)cyclopropane-1-carboxylic acid] | 81.9 | 1490 | 
4 | Cc1nnn(-c2ccc(-c3ccc(C4(C(=O)O)CC4)cc3)cc2)c1NC(=O)OC(C)c1ccc(F)cc1 (stereo not shown) [Compound 1e, 1-(4′-(5-(((1-(4-fluorophenyl)ethoxy)carbonyl)amino)-4-methyl-1H-1,2,3-triazol-1-yl)-[1,1-biphenyl]-4-yl)cyclopropane-1-carboxylic acid] | 102.1 | 93.3 | 
5 | Cc1nnn(-c2ccc(-c3ccc(C4(C(=O)O)CC4)cc3)cc2)c1NC(=O)OC(C)c1cccc(F)c1 (stereo not shown) [Compound 1f, 1-(4′-(5-(((1-(3-fluorophenyl)ethoxy)carbonyl)amino)-4-methyl-1H-1,2,3-triazol-1-yl)-[1,1′-biphenyl]-4-yl)cyclopropane-1-carboxylic acid] | 109.8 | 16 | inhibition of LPA-induced cell migration (transwell) [2]: hindered by 1f dose-dependently; inhibition of LPA-induced cell proliferation (colony formation) [3]: inhibited LPA-induced MDA-MB-231 cell proliferation in a dose-dependent manner; IC50 (nM) [1, 10]: lower than the control compound; inhibition of LPA-induced cell invasion (transwell) [4]: hindered by 1f dose-dependently; inhibition of LPA-induced cell migration (wound healing) [5]: impeded cell migration dose-dependently
6 | CCc1cccc(COC(=O)Nc2c(C)nnn2-c2ccc(-c3ccc(C4(C(=O)O)CC4)cc3)cc2)c1 [Compound 1h, 1-(4′-(5-((((3-ethylbenzyl)oxy)carbonyl)amino)-4-methyl-1H-1,2,3-triazol-1-yl)-[1,1′-biphenyl]-4-yl)cyclopropane-1-carboxylic acid] | 115.7 | 91.2 | 
7 | Cc1nnn(-c2ccc(-c3ccc(C4(C(=O)O)CC4)cc3)cc2)c1NC(=O)NCc1ccccn1 [Compound 2a, 1-(4′-(4-methyl-5-(3-(pyridin-2-ylmethyl)ureido)-1H-1,2,3-triazol-1-yl)-[1,1′-biphenyl]-4-yl)cyclopropane-1-carboxylic acid] | 41.8 | 1000 | 
8 | Cc1nnn(-c2ccc(-c3ccc(C4(C(=O)O)CC4)cc3)cc2)c1NC(=O)NCc1ccc(F)cc1 [Compound 2b, 1-(4′-(5-(3-(4-fluorobenzyl)ureido)-4-methyl-1H-1,2,3-triazol-1-yl)-[1,1′-biphenyl]-4-yl)cyclopropane-1-carboxylic acid] | 40.5 | 3150 | 
9 | Cc1nnn(-c2ccc(-c3ccc(C4(C(=O)O)CC4)cc3)cc2)c1NC(=O)NCc1cccc(F)c1 [Compound 2c, 1-(4′-(5-(3-(3-fluorobenzyl)ureido)-4-methyl-1H-1,2,3-triazol-1-yl)-[1,1′-biphenyl]-4-yl)cyclopropane-1-carboxylic acid] | 88.1 | 2000 | 
10 | Cc1nnn(-c2ccc(-c3ccc(C4(C(=O)O)CC4)cc3)cc2)c1NC(=O)NCc1ccccc1F [Compound 2d, 1-(4′-(5-(3-(2-fluorobenzyl)ureido)-4-methyl-1H-1,2,3-triazol-1-yl)-[1,1′-biphenyl]-4-yl)cyclopropane-1-carboxylic acid] | 49.5 | 4470 | 
11 | Cc1nnn(-c2ccc(-c3ccc(C4(C(=O)O)CC4)cc3)cc2)c1NC(=O)N[C@H](C)c1ccc(F)cc1 [Compound 2e, (R)-1-(4′-(5-(3-(1-(4-fluorophenyl)ethyl)ureido)-4-methyl-1H-1,2,3-triazol-1-yl)-[1,1′-biphenyl]-4-yl)cyclopropane-1-carboxylic acid] | 102.0 | 780 | 
12 | Cc1nnn(-c2ccc(-c3ccc(C4(C(=O)O)CC4)cc3)cc2)c1NC(=O)N[C@H](C)c1ccccc1 [Compound 2f, (R)-1-(4′-(4-methyl-5-(3-(1-phenylethyl)ureido)-1H-1,2,3-triazol-1-yl)-[1,1′-biphenyl]-4-yl)cyclopropane-1-carboxylic acid] | 108.1 | 242 | 
13 | Cc1nnn(-c2ccc(-c3ccc(C4(C(=O)O)CC4)cc3)cc2)c1NC(=O)N[C@@H](C)c1ccccc1 [Compound 2g, (S)-1-(4′-(4-methyl-5-(3-(1-phenylethyl)ureido)-1H-1,2,3-triazol-1-yl)-[1,1′-biphenyl]-4-yl)cyclopropane-1-carboxylic acid] | 92.7 | 299 | 
14 | Cc1nnn(-c2ccc(-c3ccc(C4(C(=O)O)CC4)cc3)cc2)c1NC(=O)NC(C)c1ccccc1 (stereo not shown) [Compound 2h, 1-(4′-(4-methyl-5-(3-(1-phenylethyl)ureido)-1H-1,2,3-triazol-1-yl)-[1,1′-biphenyl]-4-yl)cyclopropane-1-carboxylic acid] | 83.8 | 240 | 
15 | Cc1nnn(-c2ccc(-c3ccc(C4(C(=O)O)CC4)cc3)cc2)c1NC(=O)O[C@H](C)c1ccccc1 [RO-2] | 111.6 | 18.3 | IC50 [6]: 25 nM; histamine release induced by LPA [7]: ameliorated histamine release induced by LPA in vivo; IC50 [8]: > 30 µM; inhibition of lung fibroblast contraction induced by LPA [9]: inhibited lung fibroblast proliferation and contraction induced by LPA in vitro; inhibition of lung fibroblast proliferation induced by LPA [9]: inhibited lung fibroblast proliferation and contraction induced by LPA in vitro
